Results: ChEMBL document CHEMBL3885881, “DrugMatrix”

Species: Rattus norvegicus
Assay: DrugMatrix - Regimen: Daily Repeat
Assay type: toxicity, organism-based, Sprague-Dawley
Design: regimen Daily Repeat, gender Male, age 6-8 weeks
Conditions: in vivo, po, 3 mg/kg, route oral GAVAGE, dose level Low, vehicle .5 % CMC; for ABSOLUTE BASOPHIL / ABSOLUTE EOSINOPHIL / ABSOLUTE LYMPHOCYTE / ABSOLUTE MONOCYTE / ABSOLUTE SEGMENTED NEUTROPHIL / BASOPHIL / EOSINOPHIL / ERYTHROCYTE COUNT / HEMATOCRIT / HEMOGLOBIN / LEUKOCYTE COUNT / LYMPHOCYTE / MEAN CORPUSCULAR HEMOGLOBIN / MEAN CORPUSCULAR HEMOGLOBIN CONCENTRATION / MEAN CORPUSCULAR VOLUME / MONOCYTE / NEUTROPHIL / NUCLEATED RED BLOOD CELLS / PLATELET COUNT: tissue Blood; for ALANINE AMINOTRANSFERASE / ALBUMIN / ALKALINE PHOSPHATASE / ASPARTATE AMINOTRANSFERASE / BLOOD UREA NITROGEN / CARBON DIOXIDE / CHLORIDE / CHOLESTEROL / CREATINE PHOSPHOKINASE / CREATININE / GLUCOSE / LACTATE DEHYDROGENASE / LIPASE / PHOSPHORUS / POTASSIUM / SODIUM / TOTAL BILIRUBIN / TOTAL PROTEIN / URIC ACID: tissue Plasma

With `C=CC[C@@H]1/C=C(\C)C[C@H](C)C[C@H](OC)[C@H]2O[C@@](O)(C(=O)C(=O)N3CCCC[C@H]3C(=O)O[C@H](/C(C)=C/[C@@H]3CC[C@@H](O)[C@H](OC)C3)[C@H](C)[C@@H](O)CC1=O)[C@H](C)C[C@@H]2OC` [TACROLIMUS ANHYDROUS] the “ABSOLUTE BASOPHIL” value (72 h, time 3 day) was 0 CELLS/uL, the “ABSOLUTE EOSINOPHIL” value (72 h, time 3 day) was 115.33 CELLS/uL and the “ABSOLUTE LYMPHOCYTE” value (72 h, time 3 day) was 12942.67 CELLS/uL. For the same compound, the “ABSOLUTE MONOCYTE” value (72 h, time 3 day) was 191 CELLS/uL, the “ABSOLUTE SEGMENTED NEUTROPHIL” value (72 h, time 3 day) was 1684.33 CELLS/uL and the BASOPHIL (72 h, time 3 day) was 0%. The EOSINOPHIL (72 h, time 3 day) was 0.67%, the “ERYTHROCYTE COUNT” value (72 h, time 3 day) was 5.73 x10E6/uL and the HEMATOCRIT (72 h, time 3 day) was 36.53%. The HEMOGLOBIN (72 h, time 3 day) was 13.97 G/DL, the “LEUKOCYTE COUNT” value (72 h, time 3 day) was 14.93 x10E3/uL and the LYMPHOCYTE (72 h, time 3 day) was 86.67%. The “MEAN CORPUSCULAR HEMOGLOBIN” value (72 h, time 3 day) was 24.37 pg, the “MEAN CORPUSCULAR HEMOGLOBIN CONCENTRATION” value (72 h, time 3 day) was 38.27 G/DL and the “MEAN CORPUSCULAR VOLUME” value (72 h, time 3 day) was 63.77 fL. The MONOCYTE (72 h, time 3 day) was 1.33%, the NEUTROPHIL (72 h, time 3 day) was 11.33% and the “NUCLEATED RED BLOOD CELLS” value (72 h, time 3 day) was 0 /100WBC. The “PLATELET COUNT” value (72 h, time 3 day) was 1252.33 x10E3/uL, the “ALANINE AMINOTRANSFERASE” value (72 h, time 3 day) was 50.67 u/L and the ALBUMIN (72 h, time 3 day) was 4.1 G/DL. The “ALKALINE PHOSPHATASE” value (72 h, time 3 day) was 348.33 u/L, the “ASPARTATE AMINOTRANSFERASE” value (72 h, time 3 day) was 75.67 u/L and the “BLOOD UREA NITROGEN” value (72 h, time 3 day) was 16.33 mg/dL. The “CARBON DIOXIDE” value (72 h, time 3 day) was 31.67 mmol/L, the CHLORIDE (72 h, time 3 day) was 99.33 MEQ/L and the CHOLESTEROL (72 h, time 3 day) was 79 mg/dL. For the same compound, the “CREATINE PHOSPHOKINASE” value (72 h, time 3 day) was 194.33 u/L, the CREATININE (72 h, time 3 day) was 0.26 mg/dL and the GLUCOSE (72 h, time 3 day) was 149.33 mg/dL. The “LACTATE DEHYDROGENASE” value (72 h, time 3 day) was 133.33 u/L, the LIPASE (72 h, time 3 day) was 9.33 u/L and the PHOSPHORUS (72 h, time 3 day) was 12.63 mg/dL. For the same compound, the POTASSIUM (72 h, time 3 day) was 6.77 MEQ/L, the SODIUM (72 h, time 3 day) was 144.97 MEQ/L and the “TOTAL BILIRUBIN” value (72 h, time 3 day) was 0.2 mg/dL. For the same compound, the “TOTAL PROTEIN” value (72 h, time 3 day) was 5.83 G/DL, the “URIC ACID” value (72 h, time 3 day) was 1.67 mg/dL and the “ABSOLUTE BASOPHIL” value (120 h, time 5 day) was 0 CELLS/uL. For the same compound, the “ABSOLUTE EOSINOPHIL” value (120 h, time 5 day) was 0 CELLS/uL, the “ABSOLUTE LYMPHOCYTE” value (120 h, time 5 day) was 15415.33 CELLS/uL and the “ABSOLUTE MONOCYTE” value (120 h, time 5 day) was 188 CELLS/uL. For the same compound, the “ABSOLUTE SEGMENTED NEUTROPHIL” value (120 h, time 5 day) was 1663.33 CELLS/uL, the BASOPHIL (120 h, time 5 day) was 0% and the EOSINOPHIL (120 h, time 5 day) was 0%. The “ERYTHROCYTE COUNT” value (120 h, time 5 day) was 5.95 x10E6/uL, the HEMATOCRIT (120 h, time 5 day) was 36.57% and the HEMOGLOBIN (120 h, time 5 day) was 14.1 G/DL. The “LEUKOCYTE COUNT” value (120 h, time 5 day) was 17.27 x10E3/uL, the LYMPHOCYTE (120 h, time 5 day) was 89.33% and the “MEAN CORPUSCULAR HEMOGLOBIN” value (120 h, time 5 day) was 23.77 pg. For the same compound, the “MEAN CORPUSCULAR HEMOGLOBIN CONCENTRATION” value (120 h, time 5 day) was 38.57 G/DL, the “MEAN CORPUSCULAR VOLUME” value (120 h, time 5 day) was 61.53 fL and the MONOCYTE (120 h, time 5 day) was 1%. For the same compound, the NEUTROPHIL (120 h, time 5 day) was 9.67%, the “NUCLEATED RED BLOOD CELLS” value (120 h, time 5 day) was 0 /100WBC and the “PLATELET COUNT” value (120 h, time 5 day) was 1336 x10E3/uL. The “ALANINE AMINOTRANSFERASE” value (120 h, time 5 day) was 51.33 u/L, the ALBUMIN (120 h, time 5 day) was 4.23 G/DL and the “ALKALINE PHOSPHATASE” value (120 h, time 5 day) was 303 u/L. The “ASPARTATE AMINOTRANSFERASE” value (120 h, time 5 day) was 80 u/L, the “BLOOD UREA NITROGEN” value (120 h, time 5 day) was 17 mg/dL and the “CARBON DIOXIDE” value (120 h, time 5 day) was 27.67 mmol/L. The CHLORIDE (120 h, time 5 day) was 101.67 MEQ/L, the CHOLESTEROL (120 h, time 5 day) was 81 mg/dL and the “CREATINE PHOSPHOKINASE” value (120 h, time 5 day) was 231 u/L. For the same compound, the CREATININE (120 h, time 5 day) was 0.2 mg/dL, the GLUCOSE (120 h, time 5 day) was 164 mg/dL and the “LACTATE DEHYDROGENASE” value (120 h, time 5 day) was 171.67 u/L. It also gave an LIPASE (120 h, time 5 day) of 9.33 u/L, a PHOSPHORUS (120 h, time 5 day) of 13.2 mg/dL and a POTASSIUM (120 h, time 5 day) of 6.36 MEQ/L. For the same compound, the SODIUM (120 h, time 5 day) was 144.37 MEQ/L, the “TOTAL BILIRUBIN” value (120 h, time 5 day) was 0.2 mg/dL and the “TOTAL PROTEIN” value (120 h, time 5 day) was 6.13 G/DL. The “URIC ACID” value (120 h, time 5 day) was 1.73 mg/dL.
